Values quoted from earlier work in patent US20050272031A1, “Viral variants and uses therefor” (MELBOURNE HEALTH, priority 2000, published 2005).

Test system: HBV

## Nc1ncnc2c1ncn2CCOCP(=O)(O)O [Adefovir]
  anti-HBV activity in vitro: effective anti-HBV activity in vitro
